Molecular target: T1, human Proteasome (Homo sapiens, UniProt P28074)
T1 construct: purchased Immatics, Tübingen
Test: chymotryptic activity of the 20S proteasome (Suc-LLVT-AMC substrate, fluorescence)
Type: biochemical
Details: for human Proteasome IC50: result given in words
Method: The chymotryptic activity of the 20S proteasome (Immatics, Tübingen) was determined using a Tecan Ultra plate reader and Suc-LLVT-AMC as substrate (Bachem). In the wells of a black 96 well polypropylene plate, 2 µl of the respective inhibitor dissolved in DMSO were mixed with 50 µl substrate solution (25 mM HEPES pH 7.5 at 20°C, 0.5 mM EDTA and Suc-LLVT-AMC (in the appropriate concentration) and the reaction was initiated by adding 150 µl proteasome solution (1.3 µg/ml 20S proteasome in 25 mM HEPES pH 7.5 at 20°C, 0.5 mM EDTA, 0.033% (w/v) SDS). Substrate hydrolysis was followed by fluorescence spectroscopy (excitation wavelength: 360 nm; emission wavelength: 465 nm) for 20 min at 30°C and initial velocities were calculated and expressed as change in relative fluorescence units (RFU) per second.

Row | human Proteasome IC50 | IC50 (unit printed as µm) [µM] | SMILES
1 | nanomolar | – | CC(C)(C)OC(=O)NC(Cc1ccc(Br)cc1)C(=O)NC(Cc1ccc2ccccc2c1)C(=O)NC(C=NN1CC(=O)NC1=O)Cc1ccccc1 (stereo not drawn) [Compound 7]
2 | nanomolar | – | O=C1CN(N=CC(Cc2ccccc2)NC(=O)C(Cc2ccc3ccccc3c2)NC(=O)C(Cc2ccc(F)cc2)NC(=O)OCc2ccccc2)C(=O)N1 (stereo not drawn) [Compound 9]
3 | – | 3.5 | O=C1CN(/N=C/C(Cc2ccccc2)NC(=O)c2csc(-c3ccc4c(c3)CCO4)n2)C(=O)N1 (stereo not drawn) [Compound 10]
